How the values were obtained:
soybean = assay: Test B pre/postemergence soybean; assay type: in vivo, Glycine max
Procedure, shortened: (§1)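 Test chemicals in a non-phytotoxic solvent mixture with surfactant were sprayed preemergence onto planted seeds and postemergence onto plants 2 to 18 cm tall (1- to 4-leaf stage). After twelve to sixteen days in a greenhouse, injury was visually rated against untreated controls from 0 (no effect) to 10 (complete control).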

wheat = assay: Test B pre/postemergence wheat; assay type: in vivo, Triticum aestivum
Procedure, shortened: as §1

wild oat = assay: Test B pre/postemergence wild oat; assay type: in vivo, Avena fatua
Procedure, shortened: as §1

smallflower flatsedge = assay: Test B flood test smallflower flatsedge; assay type: in vivo, Cyperus difformis; settings: for S. Flatsedge plant response rating (0 to 10 scale, 0 is no effect, 10 is complete control): under heading Pre-emergence; for S. Flatsedge plant response rating (0 to 10 scale, 0 is no effect, 10 is complete control) / Plant response rating, S. Flatsedge (0 to 10 scale, 0 is no effect, 10 is complete control): flood test species, visual evaluation after twelve to sixteen days
Procedure, shortened: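 Flood test on plants grown to the 2-leaf stage; treated plants kept in greenhouse twelve to sixteen days, then visually rated against controls on a 0 (no effect) to 10 (complete control) scale.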

crabgrass = assay: Test B pre/postemergence crabgrass; assay type: in vivo, Digitaria sanguinalis
Procedure, shortened: as §1

[1] = Postemergence, Rate 125 g/ha, scale of 0 to 10 where 0 is no effect and 10 is complete control
[2] = Preemergence, Rate 125 g/ha, scale of 0 to 10 where 0 is no effect and 10 is complete control
[3] = Preemergence, Rate 500 g/ha, scale of 0 to 10 where 0 is no effect and 10 is complete control
[4] = Rate 250 g/ha, Postemergence, scale 0 to 10, 0 is no effect, 10 is complete control
[5] = Rate 500 g/ha, Postemergence, scale 0 to 10, 0 is no effect, 10 is complete control
[6] = Rate 1000 g/ha, Preemergence, scale 0 to 10 (0 no effect, 10 complete control)
[7] = Rate 250 g/ha, Pre-emergence (flood test species), scale 0 to 10, 0 is no effect, 10 is complete control
[8] = Rate 500 g/ha, Pre-emergence section of Table B, 0 to 10 scale (0 no effect, 10 complete control)
[9] = Preemergence, Rate 250 g/ha, scale 0 to 10 (0 no effect, 10 complete control)
[10] = Postemergence, Rate 62 g/ha, scale 0 to 10, 0 is no effect, 10 is complete control
[11] = Postemergence, Rate 250 g/ha, scale 0 to 10, 0 no effect, 10 complete control
[12] = Preemergence, Rate 62 g/ha, scale 0 to 10, 0 is no effect, 10 is complete control
[13] = Preemergence, Rate 125 g/ha, scale 0 to 10 (0 no effect, 10 complete control)
[14] = Preemergence, Rate 250 g/ha, scale of 0 to 10 where 0 is no effect and 10 is complete control
[15] = Preemergence, Rate 500 g/ha, scale 0 (no effect) to 10 (complete control)
[16] = Rate 125 g/ha, Postemergence, scale 0 to 10, 0 no effect, 10 complete control
[17] = Postemergence, Rate 500 g/ha, scale of 0 to 10 where 0 is no effect and 10 is complete control
[18] = Preemergence, Rate 62 g/ha, scale 0 to 10 (0 no effect, 10 complete control)
[19] = Preemergence, Rate 125 g/ha, scale 0 to 10, 0 is no effect, 10 is complete control
[20] = Rate 250 g/ha, Postemergence, scale of 0 to 10 where 0 is no effect and 10 is complete control
[21] = Postemergence, Rate 250 g/ha, scale of 0 to 10, 0 is no effect, 10 is complete control

COC(=O)C(CCO)n1c(=O)on(C(=O)N(c2ccc(F)cc2)C(C)C)c1=O (stereo not drawn) [Compound 680]
Soybean plant response rating (soybean; [1]): 0
Plant response rating, Soybean (soybean; [2]): 0
Plant response rating, Soybean (soybean; [3]): 0
Soybean plant response rating (soybean; [4]): 0
Soybean plant response rating (soybean; [5]): 3
Plant response rating, Soybean (soybean; [6]): 0
Wheat plant response rating (wheat; [1]): 0
Plant response rating, Wheat (wheat; [2]): 0
Plant response rating, Wheat (wheat; [3]): 0
Wheat plant response rating (wheat; [4]): 0
Wheat plant response rating (wheat; [5]): 0
Plant response rating, Wheat (wheat; [6]): 0
Wild oats plant response rating (wild oat; [1]): 0
Plant response rating, Wild oats (wild oat; [2]): 0
Plant response rating, Wild oats (wild oat; [3]): 0
Wild oats plant response rating (wild oat; [4]): 0
Wild oats plant response rating (wild oat; [5]): 0
Plant response rating, Wild oats (wild oat; [6]): 2
S. Flatsedge plant response rating (smallflower flatsedge; Pre-emergence, Rate 1000 g/ha, scale 0 to 10 (0 no effect, 10 complete control)): 0
S. Flatsedge plant response rating (0 to 10 scale, 0 is no effect, 10 is complete control) (smallflower flatsedge; Rate 125 g/ha): 0
S. Flatsedge plant response rating (smallflower flatsedge; [7]): 0
S. Flatsedge plant response rating (smallflower flatsedge; [8]): 0
Crabgrass plant response rating (crabgrass; [1]): 0
Crabgrass plant response rating (crabgrass; Postemergence, Rate 1000 g/ha, scale 0 to 10 (0 no effect, 10 complete control)): 9
Plant response rating, Crabgrass (crabgrass; [2]): 0
Plant response rating, Crabgrass (crabgrass; [9]): 3
Plant response rating, Crabgrass (crabgrass; [3]): 3
Crabgrass plant response rating (crabgrass; [4]): 1
Crabgrass plant response rating (crabgrass; [5]): 3
Plant response rating, Crabgrass (crabgrass; [6]): 3

Cc1c(Cl)cccc1-n1c(=O)on(C(=O)N(c2ccc(F)cc2)C(C)C)c1=O [Compound 21]
Soybean plant response rating (soybean; [10]): 2
Soybean plant response rating (soybean; [11]): 2
Plant response rating, Soybean (soybean; [12]): 0
Plant response rating, Soybean (soybean; [13]): 0
Plant response rating, Soybean (soybean; [14]): 0
Soybean plant response rating (soybean; [15]): 0
Soybean plant response rating (soybean; [16]): 2
Wheat plant response rating (wheat; [10]): 0
Wheat plant response rating (wheat; [11]): 0
Plant response rating, Wheat (wheat; [12]): 0
Plant response rating, Wheat (wheat; [13]): 0
Plant response rating, Wheat (wheat; [14]): 0
Wheat plant response rating (wheat; [15]): 0
Wheat plant response rating (wheat; [16]): 0
Wild oats plant response rating (wild oat; [10]): 0
Wild oats plant response rating (wild oat; [11]): 0
Plant response rating, Wild oats (wild oat; [13]): 0
Plant response rating, Wild oats (wild oat; [14]): 0
Wild oats plant response rating (wild oat; [15]): 0
Wild oats plant response rating (wild oat; [16]): 0
S. Flatsedge plant response rating (smallflower flatsedge; [10]): 0
S. Flatsedge plant response rating (smallflower flatsedge; Rate 125 g/ha, Postemergence section (flood test species), scale 0 to 10, 0 no effect, 10 complete control): 0
S. Flatsedge plant response rating (smallflower flatsedge; flood test, listed under Postemergence, Rate 250 g/ha, scale 0 to 10, 0 no effect, 10 complete control): 0
Crabgrass plant response rating (crabgrass; [10]): 0
Crabgrass plant response rating (crabgrass; [11]): 0
Plant response rating, Crabgrass (crabgrass; [12]): 4
Plant response rating, Crabgrass (crabgrass; [13]): 7
Plant response rating, Crabgrass (crabgrass; [14]): 7
Crabgrass plant response rating (crabgrass; [15]): 7
Crabgrass plant response rating (crabgrass; [16]): 0
Crabgrass plant response rating (crabgrass; Rate 500 g/ha, Postemergence, 0 to 10 scale (0 no effect, 10 complete control)): 2

CC(C)N(C(=O)n1oc(=O)n(C[Si](C)(C)C)c1=O)c1ccccc1 [Compound 577]
Plant response rating, Soybean (soybean; [17]): 5
Soybean plant response rating (soybean; [18]): 0
Soybean plant response rating (soybean; [19]): 0
Soybean plant response rating (0 to 10 scale) (soybean; Preemergence, Rate 250 g/ha): 0
Soybean plant response rating (soybean; [3]): 0
Plant response rating, Soybean (soybean; [20]): 3
Plant response rating, Wheat (wheat; [17]): 0
Wheat plant response rating (wheat; [18]): 0
Wheat plant response rating (wheat; [19]): 0
Wheat plant response rating (0 to 10 scale) (wheat; Preemergence, Rate 250 g/ha): 0
Wheat plant response rating (wheat; [3]): 0
Plant response rating, Wheat (wheat; [20]): 0
Plant response rating, Wild oats (wild oat; [17]): 0
Wild oats plant response rating (wild oat; [18]): 0
Wild oats plant response rating (wild oat; [19]): 0
Wild oats plant response rating (0 to 10 scale) (wild oat; Preemergence, Rate 250 g/ha): 0
Wild oats plant response rating (wild oat; [3]): 0
Plant response rating, Wild oats (wild oat; [20]): 0
Plant response rating, S. Flatsedge (0 to 10 scale, 0 is no effect, 10 is complete control) (smallflower flatsedge; Rate 62 g/ha, Pre-emergence): 0
S. Flatsedge plant response rating (0 to 10 scale, 0 is no effect, 10 is complete control) (smallflower flatsedge; Rate 125 g/ha): 0
S. Flatsedge plant response rating (smallflower flatsedge; [7]): 0
S. Flatsedge plant response rating (smallflower flatsedge; [8]): 0
Crabgrass plant response rating (crabgrass; Postemergence, Rate 62 g/ha, scale of 0 to 10, 0 is no effect, 10 is complete control): 0
Crabgrass plant response rating (crabgrass; Postemergence, Rate 125 g/ha, scale 0 to 10, 0 is no effect, 10 is complete control): 0
Plant response rating, Crabgrass (crabgrass; [17]): 3
Crabgrass plant response rating (crabgrass; [18]): 7
Crabgrass plant response rating (crabgrass; [19]): 9
Crabgrass plant response rating (0 to 10 scale) (crabgrass; Preemergence, Rate 250 g/ha): 9
Crabgrass plant response rating (crabgrass; [3]): 10
Plant response rating, Crabgrass (crabgrass; [20]): 3

CC(C)N(C(=O)n1oc(=O)n(CNC(=O)c2ccccc2)c1=O)c1ccccc1 [Compound 620]
Plant response rating, Soybean (soybean; [10]): 1
Plant response rating, Soybean (soybean; [1]): 1
Soybean plant response rating (soybean; [21]): 1
Soybean plant response rating (soybean; [18]): 0
Soybean plant response rating (soybean; [2]): 0
Plant response rating, Soybean (soybean; [9]): 0
Plant response rating, Soybean (soybean; [3]): 0
Plant response rating, Wheat (wheat; [10]): 0
Plant response rating, Wheat (wheat; [1]): 0
Wheat plant response rating (wheat; [21]): 0
Wheat plant response rating (wheat; [18]): 0
Wheat plant response rating (wheat; [2]): 0
Plant response rating, Wheat (wheat; [9]): 0
Plant response rating, Wheat (wheat; [3]): 0
Plant response rating, Wild oats (wild oat; [10]): 0
Plant response rating, Wild oats (wild oat; [1]): 0
Wild oats plant response rating (wild oat; [21]): 0
Wild oats plant response rating (wild oat; [18]): 0
Wild oats plant response rating (wild oat; [2]): 0
Plant response rating, Wild oats (wild oat; [9]): 0
Plant response rating, Wild oats (wild oat; [3]): 0
Plant response rating, S. Flatsedge (0 to 10 scale, 0 is no effect, 10 is complete control) (smallflower flatsedge; Rate 62 g/ha, Pre-emergence): 0
S. Flatsedge plant response rating (0 to 10 scale, 0 is no effect, 10 is complete control) (smallflower flatsedge; Rate 125 g/ha): 0
S. Flatsedge plant response rating (smallflower flatsedge; [7]): 0
S. Flatsedge plant response rating (smallflower flatsedge; [8]): 0
Plant response rating, Crabgrass (crabgrass; [10]): 1
Plant response rating, Crabgrass (crabgrass; [1]): 2
Plant response rating, Crabgrass (crabgrass; [17]): 3
Crabgrass plant response rating (crabgrass; [18]): 0
Crabgrass plant response rating (crabgrass; [2]): 0
Plant response rating, Crabgrass (crabgrass; [9]): 0
Plant response rating, Crabgrass (crabgrass; [3]): 6

— patent US6737383B1, “Herbicidal oxadiazolidines” (priority 1999, dated 2004)
